Values of other authors as cited in patent publication US4983400A, “Controlled release combination of carbidopa/levodopa” (priority 1989, dated 1991).

Tests used:
[1] = in vivo

N[C@@H](Cc1ccc(O)c(O)c1)C(=O)O [levodopa]
effect of high protein meals on plasma levodopa levels (human, in vivo, iv): without affecting plasma levodopa levels | motor oscillations (intravenous): reduces motor oscillations | effect of high protein meals on response (intravenous, high protein meals): decline in response | residual symptoms at optimal response (intravenous, some patients): either tremor and bradykinesia or mobility with dyskinesia | adverse reactions [1]: severe adverse reactions, especially emesis, were experienced
